Reference: the CheMixHub viscosity set
Values joined by “and” are separate entries in the source; they are usually repeats but may differ in a detail not shown here. Equal entries are not always repeated.

Test: xn = mol fraction of the nth substance listed

Cc1cccc(C)c1 + CCC(C)O
308.15 K, 101 kPa
Details | viscosity [mPa·s]
x2 = 0.0658 | 0.532
x2 = 0.1295 | 0.544
x2 = 0.2112 | 0.563
x2 = 0.3085 | 0.592
x2 = 0.3828 | 0.622
x2 = 0.4366 | 0.653
x2 = 0.5058 | 0.696
x2 = 0.6047 | 0.792
x2 = 0.698 | 0.919
x2 = 0.8006 | 1.071
x2 = 0.9493 | 1.724

Cc1ccc(O)cc1 + CCCC(=O)O
viscosity [mPa·s], 101 kPa
Details | x2 = 0.1119 | x2 = 0.2208 | x2 = 0.327 | x2 = 0.4305 | x2 = 0.5313 | x2 = 0.6297 | x2 = 0.7257 | x2 = 0.8193 | x2 = 0.9107
298.15 K | 11.14 | 8.918 | 7.131 | 5.694 | 4.541 | 3.617 | 2.884 | 2.319 | 1.88
308.15 K | 6.522 | 5.57 | 4.738 | 4.049 | 3.417 | 2.851 | 2.364 | 1.922 | 1.517
318.15 K | 5.117 | 4.435 | 3.835 | 3.299 | 2.808 | 2.362 | 1.987 | 1.643 | 1.256

Cc1cccc(C)c1 + CCCCCCCCCC
viscosity [mPa·s], 101 kPa
Details | x1 = 0.0494 | x1 = 0.1119 | x1 = 0.2059 | x1 = 0.2732 | x1 = 0.4032 | x1 = 0.4856 | x1 = 0.6058 | x1 = 0.7313 | x1 = 0.8131 | x1 = 0.9342
308.15 K | 0.7221 | 0.6889 | 0.6779 | 0.6545 | 0.6148 | 0.5958 | 0.5728 | 0.5498 | 0.5392 | 0.5253
313.15 K | 0.6818 | 0.6525 | 0.6364 | 0.6134 | 0.5805 | 0.5631 | 0.542 | 0.5191 | 0.5122 | 0.4972

Cc1cccc(C)c1 + CCCCCCCCCCCC
323.15 K, 100 kPa
Details | viscosity
x1 = 0.453 | 0.682 mPa·s and 0.683 mPa·s
x1 = 0.757 | 0.538 mPa·s and 0.539 mPa·s

Cc1cccc(C)c1 + CCCCCCCCCCO
viscosity [mPa·s], 101 kPa
Details | 298.15 K | 308.15 K
x1 = 0.0627 | 9.938 | 6.871
x1 = 0.1424 | 7.856 | 5.489
x1 = 0.2052 | 6.481 | 4.577
x1 = 0.2618 | 5.435 | 3.88
x1 = 0.3217 | 4.497 | 3.243
x1 = 0.3934 | 3.563 | 2.622
x1 = 0.4989 | 2.534 | 1.912
x1 = 0.5581 | 2.095 | 1.617
x1 = 0.6343 | 1.645 | 1.299
x1 = 0.7131 | 1.292 | 1.045
x1 = 0.7991 | 1.001 | 0.835
x1 = 0.8465 | 0.874 | 0.742
x1 = 0.8964 | 0.762 | 0.662
x1 = 0.9421 | 0.674 | 0.599

Cc1cccc(C)c1 + CCCCCCO
101 kPa
Details | viscosity [mPa·s]
303.15 K, x2 = 0.2002 | 0.683
313.15 K, x2 = 0.5 | 0.965
323.15 K, x2 = 0.4001 | 0.693

NCCCO + CCCCCCn1cc[n+](C)c1.F[B-](F)(F)F
101 kPa
Details | viscosity [mPa·s]
303.15 K, x2 = 0.3217 | 34.55
308.15 K, x2 = 0.4942 | 36.45

O=S1(=O)CCCC1 + CCCCCO
viscosity [mPa·s], 101 kPa
Details | x1 = 0.1119 | x1 = 0.2324 | x1 = 0.3323 | x1 = 0.4328 | x1 = 0.5236 | x1 = 0.6267 | x1 = 0.7208 | x1 = 0.8145 | x1 = 0.9043
303.15 K | 2.686 | 2.749 | 2.951 | 3.218 | 3.489 | 3.956 | 4.594 | 5.618 | 7.273
308.15 K | 2.366 | 2.416 | 2.578 | 2.807 | 3.082 | 3.491 | 4.077 | 4.986 | 6.441
313.15 K | 2.096 | 2.14 | 2.278 | 2.479 | 2.729 | 3.111 | 3.644 | 4.454 | 5.735

Cc1ccc(O)cc1 + CCCCN(CCCC)CCCC
298.16 K, 101 kPa
Details | viscosity [mPa·s]
x1 = 0.5103 | 5.579
x1 = 0.5404 | 5.375
x1 = 0.5979 | 9.34
x1 = 0.6392 | 17.64
x1 = 0.6996 | 33.29
x1 = 0.7333 | 51.5
x1 = 0.7543 | 67.62
x1 = 0.7729 | 84.91
x1 = 0.7927 | 101.9
x1 = 0.8108 | 118
x1 = 0.8352 | 127.1
x1 = 0.8549 | 122.8
x1 = 0.8734 | 104.8
x1 = 0.893 | 82.05
x1 = 0.9161 | 61.96
x1 = 0.9375 | 42.17
x1 = 0.9497 | 33.73
x2 = 0.005161 | 13.13

Cc1ccc(O)cc1 + CCCCNCCCC
298.16 K, 101 kPa
Details | viscosity [mPa·s]
x1 = 0.4487 | 3.678
x1 = 0.4877 | 5.428
x1 = 0.5489 | 7.609
x1 = 0.5951 | 11.91
x1 = 0.6192 | 13.62
x1 = 0.6457 | 16.41
x1 = 0.6924 | 28.49
x1 = 0.7098 | 33.96
x1 = 0.7329 | 43.07
x1 = 0.7632 | 61.06
x1 = 0.7959 | 79.23
x1 = 0.833 | 89.65
x1 = 0.8754 | 78.76
x1 = 0.902 | 60.59
x1 = 0.9421 | 33.43
x2 = 0.001967 | 12.1
x2 = 0.003431 | 17.88
x2 = 0.015 | 18.21

C1CC[NH2+]C1.CCCCCCCC(=O)[O-] + CCCCO
viscosity [mPa·s], 101 kPa
Details | x1 = 0.1198 | x1 = 0.2524 | x1 = 0.3299 | x1 = 0.4745 | x1 = 0.6187 | x1 = 0.7174 | x1 = 0.7912 | x1 = 0.9269
293.15 K | 5.39 | 10.82 | 13.21 | 22.51 | 34.14 | 44.35 | 51.93 | 65.75
298.15 K | 6.9 | 10.82 | – | 21.6 | 30.39 | 38.92 | 44.89 | 57.02
303.15 K | 4.75 | 8.64 | 11.15 | 17 | 24.8 | 31.23 | 35.44 | 45.4
308.15 K | 4.32 | 7.79 | 10.03 | 14.95 | 21.43 | 26.63 | 29.97 | 38.73
313.15 K | 3.6 | 6.6 | 8.5 | 13 | 17.8 | 21.5 | 25.3 | 31.7

Nc1ccccc1Cl + CCCCO
viscosity [mPa·s], 101 kPa
Details | x1 = 0.0883 | x1 = 0.1789 | x1 = 0.2719 | x1 = 0.3675 | x1 = 0.4656 | x1 = 0.5666 | x1 = 0.6703 | x1 = 0.7771 | x1 = 0.8869
303.15 K | 2.47 | 2.66 | 2.83 | 3 | 3.16 | 3.31 | 3.44 | 3.57 | 3.69
308.15 K | 2.21 | 2.39 | 2.55 | 2.71 | 2.85 | 2.98 | 3.1 | 3.22 | 3.32
313.15 K | 1.98 | 2.16 | 2.31 | 2.45 | 2.58 | 2.7 | 2.82 | 2.92 | 3
318.15 K | 1.79 | 1.96 | 2.1 | 2.23 | 2.35 | 2.46 | 2.57 | 2.67 | 2.74
